Where a SMILES comes first, the peptide text is derived from it. The star is where a group is joined. X1 = CC(C)CC(CP(=O)(O)[C@@H](N)CCc1ccccc1)C(=O)*
How the values were obtained:
ERAP1 [1] = target: T1, ERAP1 (Homo sapiens, UniProt Q9NZ08); test: Fluorigenic enzymatic assay: inhibition of ERAP1 hydrolysis of Leu-AMC; assay type: biochemical
T1 construct: inferred from the nickel-NTA purification; made in house; host or cells: Hi5 insect cells, recombinant baculovirus
Description: Expression and purification of ERAP1 was performed as described previously. Briefly, ERAP1 was expressed in Hi5 insect cells after infection with recombinant baculovirus at 27 °C. Protein was isolated by affinity chromatography using nickel-nitrilotriacetic acid–agarose beads. Protein aliquots were kept at − 80 °C in Hepes/NaCl buffer pH 7.0 supplemented with 10% (v/v) glycerol, until needed.
ERAP1 enzymatic activity and inhibitor IC50 values were calculated as previously reported. Briefly, hydrolysis of the fluorescent substrate leucine-aminomethylcoumarin (Leu-AMC, Sigma–Aldrich, L2145) was followed at 460 nm (excitation at 380 nm) using a Spark 10 M (TECAN) multimode microplate reader. The IC50 of DG080 was calculated by using the equation log (inhibitor) versus response-variable slope of GraphPad Prism 8.0™.

ERAP1 [2] = target: T1, ERAP1; test: ERAP1 trimming of MHCI-bound peptide followed by native-PAGE; assay type: biochemical
ERAP1 [3] = target: T1, ERAP1; details: cited from earlier work
HLA-B*08:01 = HLA-B*08:01 (Homo sapiens, UniProt P01889, A93T/A95T/D138N/E176V/E187T/K202T/Q94N/R180D/S35A/V36M/Y33D/Y91F); details: cited from earlier work
HLA-B*08 [4] = details: non-covalently linked peptide, with AI9; cited from earlier work
ERAP1 [5] = target: T1, ERAP1; details: cited from earlier work; remark: listed apart in the source
HLA-B*08 [6] = test: Kinetic stability of complex by competition with SYPRO Orange (peptide dissociation); assay type: binding; details: 37 °C, 8 μM complex, 50X SYPRO Orange dye (4 μL in 20 μL), excitation 533 nm, emission 572 nm, non-covalent complex, each data point average of two repetitions
Description: (§1) The assay was performed in the Lightcycler 96 RT-PCR instrument as previously reported. Reaction mixtures (total volume 20 μL) consisted of 16 μL protein complex (final concentration 8 μΜ) and 4 μL of 50X SYPRO Orange dye (Sigma–Aldrich, S5692). Excitation wavelength was set at 533 nm and emission at 572 nm. The temperature was set at 37 °C for the duration of the experiment.

HLA-B*08:01(E76C) = HLA-B*08:01(E76C) (Homo sapiens, UniProt P01889, A93T/A95T/D138N/E176V/E187T/K202T/Q94N/R180D/S35A/V36M/Y33D/Y91F); test: Thermal shift assay (DSF), melting temperature of HLA-B*08(E76C)/peptide complex; assay type: physicochemical; details: purified complex, Fig. 1F three repetitions shown
Description: The assay as well as the calculation of the melting temperature (Tm) of the complexes HLA-B*08:01(E76C)-DG080 and HLA-B*08:01(E76C)-AI12Cys were performed as previously reported.

HLA-B*08(E76C) [7] = target: T2, HLA-B*08(E76C) (Homo sapiens, UniProt P01889, A93T/A95T/D138N/E100C/E176V/E187T/K202T/Q94N/R180D/S35A/V36M/Y33D/Y91F); test: Peptide exchange with excess 9mer […] (AI9), native-PAGE; assay type: binding
T2 construct: made in house
Description: Separating gel was prepared by mixing 2.9 mL Tris–HCl 0.375 M pH 8.8 solution, 2 mL acrylamide solution 30%, 100 μL APS 10% w/v and 5 μL TEMED. Stacking gel was formed by mixing 2.14 mL Tris–HCl 0.375 M pH 8.8 solution, 0.34 mL acrylamide solution 30%, 50 μL APS 10% w/v and 5 μL TEMED. Sample loading buffer was formed by mixing 62.5 mM Tris–HCl pH 6.8 solution, 25% v/v glycerol and 1% v/v bromophenol blue solution. Running buffer consists of 25 mM Tris-base and 192 mM glycine. Electrophoresis is conducted at 4 °C, 100 V for 5 h. 1,5 µg of MHC I-peptide complexes and 3 µg of ERAP1 were used.

HLA-B*08(E76C) [8] = target: T2, HLA-B*08(E76C); test: Kinetic stability of complex by competition with SYPRO Orange (peptide dissociation); assay type: binding; details: 37 °C
Description: as §1

ERAP1 [9] = target: T1, ERAP1; test: ERAP1 trimming of MHCI-bound peptide followed by MALDI-TOF-MS; assay type: biochemical; details: 20 nM or 100 nM ERAP1; stopped with TFA; 100 mM DTT added to free peptide
Description: To confirm the above finding we followed the trimming reaction by MALDI-TOF–MS which allows the concurrent detection of several peptide species. HLA-B*08(E76C)- […] was incubated with either 20 nM or 100 nM of ERAP1 and the reaction was stopped by the addition of TFA and flash-frozen. MALDI-TOF–MS analysis was performed as described before, but with the addition of 100 mM DTT to reduce the disulfide linkage to the complex so that the freed peptide can be detected (Fig. 2D).
Detection of peptides bound onto ΗLA-B*08:01 by MALDI-TOF–MS was performed as previously described[17] with the exception that 100 mM DTT was added to 10 μL samples of ΗLA-B*08:01(E76C) protein complexes to break the disulfide bond and allow detection of the peptide.

ERAP1 [10] = target: T1, ERAP1; test: ERAP1 ternary complex formation, native-PAGE band shift; assay type: binding; details: equimolar mixture of ERAP1 and complex
From the text: The phosphinic head of the DG080 pseudopeptide should provide it with high affinity for the active site of ERAP1. To validate this assumption, we mixed free DG080 with ERAP1 and followed ERAP1 activity using the small fluorigenic substrate L-Leucine-7-amido-4-methylcoumarin (Leu-AMC)[24]. […] Due to the low amounts of complex available, we performed assays at a fixed concentration of 1 μΜ for both free DG080 and HLA-B*08(E76C)-DG080 complex. At that concentration, free DG080 was able to inhibit almost 90% of ERAP1 activity, consistent with its measured IC50. […] We conclude that although DG080 in solution has full access to the ERAP1 active site, DG080 covalently bound onto HLA-B*08 has very limited access to the active site of ERAP1, possibly due to steric hindrances that limit a proper binding orientation necessary so that the ERAP1 active site can approach the MHCI binding groove. To validate the stability of the HLA-B*08(E76C)-DG080 versus ERAP1 trimming or peptide exchange, we first incubated the complex with 20 nM ERAP1 at 37 °C for 1 h and analyzed the sample by native-PAGE (Fig. 4C). […] To further explore a potential interaction between ERAP1 and the phosphinic N-terminus of the peptide bound onto HLA-B*08, we analyzed an equimolar mixture of ERAP1 with HLA-B*08(E76C)-DG080 by native PAGE (Fig. 4D). […]

[11] = target: Endoplasmic Reticulum Aminopeptidase 1 (ERAP1) (UniProt Q9NZ08)
[12] = 20 nM ERAP1, up to 2 h (0–120 min)

CC(C)CC(CP(=O)(O)[C@@H](N)CCc1ccccc1)C(=O)NCC(=O)N[C@@H](CO)C(=O)NCC(=O)N[C@@H](CO)C(=O)NCC(=O)N[C@@H](CO)C(=O)N[C@@H](C)C(=O)N[C@@H](C)C(=O)N[C@@H](CCCCN)C(=O)N[C@@H](CCCCN)C(=O)N[C@@H](CCCCN)C(=O)N[C@@H](Cc1ccc(O)cc1)C(=O)N[C@@H](CS)C(=O)N[C@@H](CC(C)C)C(=O)O (stereo partly shown) [DG080] (X1-GSGSGSAAKKKYCL-OH)
inhibition at 1 µM (ERAP1 [1]; free peptide, 1 μM, Leu-AMC hydrolysis, two measurements): ~90% | IC50 (ERAP1 [1]; free peptide, substrate Leu-AMC, excitation 380 nm, emission 460 nm, log(inhibitor) vs response-variable slope, each point average of two measurements): 350 ± 89 nM

ARAALRSRYWAI [listing 1 of 2 here]
ERAP1 trimming: change in electrophoretic mobility (native-PAGE) (ERAP1 [2]; [12]): ERAP1 was able to modify the electrophoretic mobility | ERAP1 trimming half-life, MHCI-bound peptide (MALDI-TOF-MS) (ERAP1 [3]): 20 to 30 min | stability of complex with HLA-B*08:01 (HLA-B*08:01): thermodynamically stable but kinetically labile complex | peptide exchange (native-PAGE) (HLA-B*08 [4]): similarly to the non-covalently linked AI12 peptide | ERAP1 trimming half-life, MHCI-bound peptide (native-PAGE) (ERAP1 [5]): 18 min | ERAP1 trimming while bound onto HLA-B*08:01 (ERAP1 [5]; non-covalent complex, compared with solution): ERAP1 can apparently trim this peptide while it is bound onto HLA-B*08:01, albeit slower than in solution

ARAALRSRYWAI [listing 2 of 2 here]
half-life of complex (t1/2) (HLA-B*08 [6]): 7 ± 1 min

ARAALRSRYWCI [disulfide-linked HLA-B*08/peptide complex]
ERAP1 trimming: change in electrophoretic mobility (native-PAGE) (ERAP1 [2]; [12]): no change in electrophoretic mobility was observed | melting temperature (Tm) (HLA-B*08:01(E76C)): 44.0 ± 0.5 °C | peptide exchange (native-PAGE) in presence of DTT (HLA-B*08(E76C) [7]; 100 μM ALRSRYWAI + DTT (100 μM in Fig. 2B legend), incubation at RT): full exchange of the ARAALRSRYWCI with ALRSRYWAI | peptide exchange (electrophoretic mobility in native-PAGE) (HLA-B*08(E76C) [7]; excess ALRSRYWAI (100 μM), 60 min at RT, no DTT): did not alter the electrophoretic mobility of the complex in native-PAGE suggesting no peptide exchange | half-life of complex (t1/2) (HLA-B*08(E76C) [8]; SYPRO Orange competition, 8 μM complex, 50X SYPRO Orange dye (4 μL in 20 μL), excitation 533 nm, emission 572 nm, each data point average of three repetitions): 450 ± 38 min | slowing of dye access to MHC binding groove by covalently linking the peptide (HLA-B*08(E76C) [8]; vs non-covalent HLA-B*08-ARAALRSRYWAI complex): almost 2 orders of magnitude | time-dependent decrease of 12mer peptide on incubation with ERAP1 (MALDI-TOF-MS) (ERAP1 [9]): no time-dependent decrease of the 12mer peptide

hFΨ[P(O)(OH)CH2]LGSGSGSAAKKKYCL [HLA-B*08(E76C)-DG080, disulfide-linked HLA-B*08/ phosphinic peptide complex]
ERAP1 trimming: change in electrophoretic mobility (native-PAGE) (ERAP1 [2]; 20 nM ERAP1, 37 °C, 1 h): No change in electrophoretic mobility was observed | effect on ERAP1 enzymatic activity (ERAP1 [1]; complex, 1 μM, Leu-AMC hydrolysis, two measurements): unable to fully inactivate ERAP1, and had only a marginal effect on its enzymatic activity | peptide exchange (electrophoretic mobility in native-PAGE) (HLA-B*08(E76C) [7]; excess (100 μM) ALRSRYWAI, 37 °C, 1 h): no change in electrophoretic mobility was evident | band shift with ERAP1 (stable ternary complex formation) (ERAP1 [10]): No band shifts were evident

phosphinic pseudopeptide DG080, hFΨ[P(O)(OH)CH2]…
inhibition of ERAP1 hydrolysis of Leu-AMC by titrated free DG080, IC50 [11]: 350 nM | inhibition of ERAP1 hydrolysis of the fluorigenic substrate at a fixed 1 μΜ of free DG080 [11]: 90%

Source: paper PMC8363620, “The ERAP1 active site cannot productively access the N-terminus of antigenic peptide precursors stably bound onto MHC class I” (Scientific Reports, 2021)
